Assay results as given in patent US8575193B2, “N-substituted tetrahydroisoquinoline/isoindoline hydroxamic acid compounds” (4SC AG, priority 2008, dated 2013).
Counter-ions that a name gives are not always drawn. Each block holds one compound with its values, some of them ahead of it.

Assays:
rHDAC8 = biological target: T1, rHDAC8 (Homo sapiens, UniProt Q9BY41); assay: rHDAC8 enzymatic assay (recombinant FLAG-HDAC8); format: biochemical; conditions: FLAG-HDAC8 from insect cells; 50 μM Ac-RHK(Ac)K(Ac)-AMC, 3 h at 30° C.; read-out: rHDAC8 [pIC50] (converted)
T1 construct: FLAG; made in house; host or cells: baculovirus-infected Sf21 insect cells
T1 sequence (Q9BY41 1-377): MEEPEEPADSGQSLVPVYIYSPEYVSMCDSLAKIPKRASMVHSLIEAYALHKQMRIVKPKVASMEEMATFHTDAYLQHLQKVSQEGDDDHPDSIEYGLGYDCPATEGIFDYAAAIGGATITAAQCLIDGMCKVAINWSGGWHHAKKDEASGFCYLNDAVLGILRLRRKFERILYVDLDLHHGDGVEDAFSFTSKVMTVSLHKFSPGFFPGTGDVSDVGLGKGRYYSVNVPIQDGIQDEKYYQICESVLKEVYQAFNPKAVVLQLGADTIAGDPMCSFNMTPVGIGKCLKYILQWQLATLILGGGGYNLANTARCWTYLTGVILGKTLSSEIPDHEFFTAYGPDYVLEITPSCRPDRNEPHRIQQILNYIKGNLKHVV
Description: (§1) Human HDAC1 and HDAC6 fused with the FLAG epitope are stably expressed in HEK293 cells while human HDAC3 and HDAC8 fused with the FLAG epitope are overexpressed in baculo-virus infected insect (Sf21) cells. To ensure stability of FLAG-HDAC3 the SMRT protein is co-expressed in the corresponding insect cells. […] FLAG-HDAC3 and FLAG-HDAC8 are also purified by M2-agarose affinity chromatography after mass cultivation of the insect cells and cell lysis.
(§2) The HDAC enzyme activity assay is done as described by Wegener et al. (Chem. & Biol. 10, 61-68, 2003). Briefly 40 μl of a 1:100 dilution (=0.4 μl) nuclear HeLa extract (mixture of class I and II HDACs), 29 μl enzyme buffer (15 mM Tris HCl pH 8.1, 0.25 mM EDTA, 250 mM NaCl, 10% v:v glycerol) and 1 μl test compound are added to a well of a 96 well microtiter plate and reaction started by addition of 3 μl substrate (Ac-NH-GGK(Ac)-AMC; final concentration 25 μM and final volume […]). […] After incubation at room temperature for further 40 min, fluorescence is measured using a Wallac Victor 1420 multilabel counter (Ex 355 nm, Em 460 nm) for quantification of AMC (7-amino-4-methylcoumarin) generated by trypsine cleavage of the deacetylated peptide. […] The corresponding pIC50 values of the compounds for HDAC inhibitory activity are determined from the concentration-effect curves by means of non-linear regression (Graphpad Prism software).
(§3) The HDAC1, HDAC3 and HDAC6 enzymatic assays are done with slight modifications with recombinant FLAG-HDAC1 and FLAG-HDAC6 proteins isolated from HEK293 cell lysates or recombinant FLAG-HDAC3 isolated from insect cells, respectively. The HDAC8 enzymatic assay using recombinant FLAG-HDAC8 isolated from insect cells is done with a different substrate. About 4.5 ng/well FLAG-HDAC1 and 3.1 ng/well FLAG-HDAC6 (dependent on batches and specific activity) are incubated with 6 μM or 10 μM Ac-NH-GGK(Ac)-AMC substrate, respectively, for 3 h at 30° C. About 1.7 ng/well FLAG-HDAC3 is incubated with 6 μM Ac-NH-GGK(Ac)-AMC substrate for 2 h at 30° C., while approximately 130 ng/well FLAG-HDAC8 is incubated with 50 μM Ac-RHK(Ac)K(Ac)-AMC substrate for 3 h at 30° C. Termination of the reaction and all further steps are done as described for HeLa cell nuclear extracts as a source for HDAC enzymatic activity. The corresponding pIC50 values of the compounds for HDAC1, HDAC3, HDAC6 and HDAC8 inhibitory activity are determined from the concentration-effect curves by means of non-linear regression.

rHDAC3 = biological target: T2, rHDAC3 (Homo sapiens, UniProt O15379); assay: rHDAC3 enzymatic assay (recombinant FLAG-HDAC3); format: biochemical; conditions: FLAG-HDAC3 from insect cells; 6 μM Ac-NH-GGK(Ac)-AMC, 2 h at 30° C.; read-out: rHDAC3 [pIC50] (converted)
T2 construct: FLAG; made in house; host or cells: baculovirus-infected Sf21 insect cells
T2 sequence (O15379 whole entry): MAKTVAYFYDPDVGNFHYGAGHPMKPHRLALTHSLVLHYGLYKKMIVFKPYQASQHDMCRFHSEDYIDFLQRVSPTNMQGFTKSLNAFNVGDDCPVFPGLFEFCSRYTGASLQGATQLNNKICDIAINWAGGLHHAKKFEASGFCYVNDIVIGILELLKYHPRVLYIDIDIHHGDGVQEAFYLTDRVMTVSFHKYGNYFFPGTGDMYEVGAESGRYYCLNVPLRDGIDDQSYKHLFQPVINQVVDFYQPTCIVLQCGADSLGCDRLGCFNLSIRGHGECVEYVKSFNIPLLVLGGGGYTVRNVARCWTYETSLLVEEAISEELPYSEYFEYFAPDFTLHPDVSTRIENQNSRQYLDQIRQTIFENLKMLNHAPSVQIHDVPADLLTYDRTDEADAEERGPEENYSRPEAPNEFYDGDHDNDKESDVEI
T2 sequence (Q9Y618 whole entry partner): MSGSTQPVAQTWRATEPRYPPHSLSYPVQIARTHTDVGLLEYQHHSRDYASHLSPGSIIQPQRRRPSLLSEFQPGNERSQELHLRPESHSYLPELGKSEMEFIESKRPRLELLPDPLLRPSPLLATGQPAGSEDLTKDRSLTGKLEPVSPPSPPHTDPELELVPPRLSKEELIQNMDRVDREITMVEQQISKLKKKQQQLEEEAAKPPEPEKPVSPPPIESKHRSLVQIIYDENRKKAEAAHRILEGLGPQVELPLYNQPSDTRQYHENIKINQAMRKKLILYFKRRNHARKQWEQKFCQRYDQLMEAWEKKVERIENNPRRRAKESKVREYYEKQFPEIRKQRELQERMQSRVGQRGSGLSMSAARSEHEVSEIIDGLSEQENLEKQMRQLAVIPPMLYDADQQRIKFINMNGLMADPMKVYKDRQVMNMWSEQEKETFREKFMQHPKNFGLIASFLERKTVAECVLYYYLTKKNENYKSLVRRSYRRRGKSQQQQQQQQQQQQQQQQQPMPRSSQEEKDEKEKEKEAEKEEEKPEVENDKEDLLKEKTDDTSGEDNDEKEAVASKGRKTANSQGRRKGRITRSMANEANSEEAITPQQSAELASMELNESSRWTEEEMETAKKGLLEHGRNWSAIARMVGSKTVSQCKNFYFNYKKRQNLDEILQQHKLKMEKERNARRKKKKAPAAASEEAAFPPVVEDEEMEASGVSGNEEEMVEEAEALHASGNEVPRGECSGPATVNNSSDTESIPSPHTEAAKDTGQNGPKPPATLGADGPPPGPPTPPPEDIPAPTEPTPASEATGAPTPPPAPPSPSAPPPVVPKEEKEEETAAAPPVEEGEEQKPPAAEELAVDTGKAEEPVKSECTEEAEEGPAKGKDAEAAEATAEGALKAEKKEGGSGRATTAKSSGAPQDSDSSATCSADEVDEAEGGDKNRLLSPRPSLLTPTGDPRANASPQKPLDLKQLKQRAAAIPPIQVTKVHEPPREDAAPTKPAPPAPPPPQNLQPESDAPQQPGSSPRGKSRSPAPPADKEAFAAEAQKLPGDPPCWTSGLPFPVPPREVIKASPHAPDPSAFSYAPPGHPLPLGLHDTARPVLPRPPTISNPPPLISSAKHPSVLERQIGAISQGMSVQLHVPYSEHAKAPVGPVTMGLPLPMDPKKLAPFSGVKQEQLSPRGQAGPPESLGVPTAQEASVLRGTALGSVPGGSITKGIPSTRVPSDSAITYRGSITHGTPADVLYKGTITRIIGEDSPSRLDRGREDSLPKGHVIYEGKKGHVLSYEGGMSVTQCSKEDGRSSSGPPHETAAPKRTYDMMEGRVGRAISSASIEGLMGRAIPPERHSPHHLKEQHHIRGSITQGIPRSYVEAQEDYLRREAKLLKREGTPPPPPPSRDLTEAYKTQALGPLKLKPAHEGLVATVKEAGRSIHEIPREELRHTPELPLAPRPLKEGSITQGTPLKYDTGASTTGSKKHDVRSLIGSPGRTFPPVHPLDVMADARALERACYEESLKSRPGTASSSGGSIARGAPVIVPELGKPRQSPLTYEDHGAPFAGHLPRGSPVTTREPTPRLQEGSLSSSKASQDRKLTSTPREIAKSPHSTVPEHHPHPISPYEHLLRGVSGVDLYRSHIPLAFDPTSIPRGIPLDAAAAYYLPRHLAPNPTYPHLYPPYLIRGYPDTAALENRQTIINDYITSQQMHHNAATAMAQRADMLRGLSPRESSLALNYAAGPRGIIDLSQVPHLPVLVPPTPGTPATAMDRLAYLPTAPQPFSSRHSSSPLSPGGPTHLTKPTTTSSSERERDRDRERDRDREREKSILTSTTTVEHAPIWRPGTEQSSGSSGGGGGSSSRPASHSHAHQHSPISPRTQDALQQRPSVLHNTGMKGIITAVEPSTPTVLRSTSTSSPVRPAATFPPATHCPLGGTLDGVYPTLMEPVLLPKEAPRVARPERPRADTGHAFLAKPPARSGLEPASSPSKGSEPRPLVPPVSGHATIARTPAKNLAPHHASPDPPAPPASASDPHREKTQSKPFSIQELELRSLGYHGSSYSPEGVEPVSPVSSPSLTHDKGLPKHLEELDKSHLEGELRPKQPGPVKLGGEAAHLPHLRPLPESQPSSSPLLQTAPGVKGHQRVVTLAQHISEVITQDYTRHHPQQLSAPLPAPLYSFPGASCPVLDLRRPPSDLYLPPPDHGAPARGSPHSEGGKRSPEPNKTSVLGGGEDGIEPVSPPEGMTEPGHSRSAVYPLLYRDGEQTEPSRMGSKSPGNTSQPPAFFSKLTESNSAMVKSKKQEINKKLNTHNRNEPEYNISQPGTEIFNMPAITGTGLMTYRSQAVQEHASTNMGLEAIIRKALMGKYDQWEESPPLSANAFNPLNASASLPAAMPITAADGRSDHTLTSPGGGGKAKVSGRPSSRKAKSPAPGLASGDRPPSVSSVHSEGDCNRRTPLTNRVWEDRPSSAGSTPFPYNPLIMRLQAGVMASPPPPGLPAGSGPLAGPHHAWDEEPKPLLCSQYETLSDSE
Description: as §1, §2, §3

[1] = Cellular cytotoxicity assay (Alamar Blue/Resazurin), HeLa; format: cell-based; conditions: human, HeLa cells, 72 hours incubation, Resazurin, read-out: HeLa Cytotoxicity [pIC50] (converted)
Procedure: (§4) The anti-proliferative activity of the compounds as described herein, is evaluated with various solid and hematological cancer cell lines using the Alamar Blue (Resazurin) cell viability assay (O'Brien et al, Eur J Biochem 267, 5421-5426, 2000). Resazurin is reduced to the fluorescent resorufin by cellular dehydrogenase activity, correlating with viable, proliferating cells. Test compounds are dissolved as 20 mM solutions in dimethylsulfoxide (DMSO) and subsequently diluted in semi-logarithmic steps. The cancer cell lines are seeded into 96 well flat bottom plates at respective cell densities in a volume of 200 μl per well to allow continuous proliferation during the experiment. 24 hours after seeding 1 μl each of the compound dilutions is added into each well of the 96 well plate. Wells containing untreated control cells are filled with 200 μl DMEM medium containing 0.5% v:v DMSO. The cells are then incubated with the substances for 72 hours at 37° C. in a humidified atmosphere containing 5% carbon dioxide. To determine the viability of the cells, 20 μl of a Resazurin solution (Sigma; 90 mg/l) are added. After 4 hours incubation at 37° C. the fluorescence is measured at an extinction of 544 nm and an emission of 590 nm. For the calculation of the cell viability the emission value from untreated cells is set as 100% viability and the emission rates of treated cells are set in relation to the values of untreated cells. Viabilities are expressed as % values. The corresponding pIC50 values of the compounds for cytotoxic activity are determined from the concentration-effect curves by means of non-linear regression.

[2] = Cellular cytotoxicity assay (Alamar Blue/Resazurin), A549; format: cell-based; conditions: human, A549 cells; A549, 72 hours incubation, Resazurin; read-out: A549 Cytotoxicity [pIC50] (converted)
Procedure: as §4

rHDAC6 = biological target: T3, rHDAC6 (Homo sapiens, UniProt Q9UBN7); assay: rHDAC6 enzymatic assay (recombinant FLAG-HDAC6); format: biochemical; conditions: FLAG-HDAC6 from HEK293; 10 μM Ac-NH-GGK(Ac)-AMC, 3 h at 30° C.; read-out: rHDAC6 [pIC50] (converted)
T3 construct: FLAG; made in house
T3 sequence (Q9UBN7 1-1215): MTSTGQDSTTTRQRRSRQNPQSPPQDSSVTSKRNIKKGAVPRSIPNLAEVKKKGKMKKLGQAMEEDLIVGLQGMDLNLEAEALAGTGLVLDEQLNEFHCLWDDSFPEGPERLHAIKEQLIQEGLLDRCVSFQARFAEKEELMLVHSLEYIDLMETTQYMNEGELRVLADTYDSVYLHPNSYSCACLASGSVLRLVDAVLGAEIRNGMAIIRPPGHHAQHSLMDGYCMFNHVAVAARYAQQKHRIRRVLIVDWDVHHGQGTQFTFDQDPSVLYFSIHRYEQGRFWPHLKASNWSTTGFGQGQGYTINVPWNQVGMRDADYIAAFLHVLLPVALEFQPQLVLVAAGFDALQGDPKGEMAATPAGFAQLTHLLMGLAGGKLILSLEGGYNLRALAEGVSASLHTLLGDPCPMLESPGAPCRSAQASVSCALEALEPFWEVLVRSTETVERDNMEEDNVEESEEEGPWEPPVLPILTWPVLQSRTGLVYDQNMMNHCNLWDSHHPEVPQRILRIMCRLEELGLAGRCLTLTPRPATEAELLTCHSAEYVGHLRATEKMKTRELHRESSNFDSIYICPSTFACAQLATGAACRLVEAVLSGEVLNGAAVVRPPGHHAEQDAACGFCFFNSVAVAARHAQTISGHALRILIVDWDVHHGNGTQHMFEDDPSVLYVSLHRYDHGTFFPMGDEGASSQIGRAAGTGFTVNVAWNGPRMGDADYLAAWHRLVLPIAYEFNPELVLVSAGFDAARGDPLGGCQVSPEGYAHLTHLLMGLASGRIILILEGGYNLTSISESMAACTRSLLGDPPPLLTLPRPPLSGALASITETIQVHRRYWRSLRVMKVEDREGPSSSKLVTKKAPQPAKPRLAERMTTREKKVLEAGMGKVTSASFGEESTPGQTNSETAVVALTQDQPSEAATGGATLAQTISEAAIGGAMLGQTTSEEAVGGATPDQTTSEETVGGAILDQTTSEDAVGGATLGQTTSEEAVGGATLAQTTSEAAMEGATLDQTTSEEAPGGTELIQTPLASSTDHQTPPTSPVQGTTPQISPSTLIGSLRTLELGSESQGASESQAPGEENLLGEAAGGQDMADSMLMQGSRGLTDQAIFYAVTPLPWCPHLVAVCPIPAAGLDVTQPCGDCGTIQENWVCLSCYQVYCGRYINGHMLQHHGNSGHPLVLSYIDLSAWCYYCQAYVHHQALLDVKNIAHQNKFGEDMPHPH
Description: as §1, §2, §3

rHDAC1 = biological target: T4, rHDAC1 (Homo sapiens, UniProt Q13547); assay: rHDAC1 enzymatic assay (recombinant FLAG-HDAC1); format: biochemical; conditions: FLAG-HDAC1 from HEK293; 6 μM Ac-NH-GGK(Ac)-AMC, 3 h at 30° C.; read-out: rHDAC1 [pIC50] (converted)
T4 construct: FLAG; made in house
T4 sequence (Q13547 whole entry): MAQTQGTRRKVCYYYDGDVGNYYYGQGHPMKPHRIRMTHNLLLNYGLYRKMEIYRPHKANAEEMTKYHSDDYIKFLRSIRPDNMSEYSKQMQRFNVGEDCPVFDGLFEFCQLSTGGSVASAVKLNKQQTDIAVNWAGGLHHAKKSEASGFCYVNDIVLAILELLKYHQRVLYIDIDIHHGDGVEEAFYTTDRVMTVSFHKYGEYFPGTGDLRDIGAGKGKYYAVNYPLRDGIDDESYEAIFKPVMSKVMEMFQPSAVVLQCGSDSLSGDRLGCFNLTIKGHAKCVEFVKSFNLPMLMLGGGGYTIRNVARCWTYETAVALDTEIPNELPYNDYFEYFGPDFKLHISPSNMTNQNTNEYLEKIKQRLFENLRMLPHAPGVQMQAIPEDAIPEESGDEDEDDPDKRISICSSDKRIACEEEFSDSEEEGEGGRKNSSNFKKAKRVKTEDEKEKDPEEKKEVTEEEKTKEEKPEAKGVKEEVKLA
Description: as §1, §2, §3

IC50 (rHDAC8): 1 to 10 µM
IC50 (rHDAC3): 10 to 100 µM
Compound: O=C(NO)c1ccc2c(c1)CCN(C(=O)Cc1ccccn1)C2 [Example 14, N-Hydroxy-2-(pyridin-2-ylacetyl)-1,2,3,4-tetrahydroisoquinoline-6-carboxamide hydrochloride]
IC50 at 72 h [1]: 1 to 100 µM

melting point: 63 °C
Compound: Cc1nccn1CCC(=O)N1CCc2ccc(C(=O)NO)cc2C1.Cl

melting point: 162 to 166 °C
Compound: O=C(NO)c1ccc2c(c1)CN(C(=O)c1ccc3ccccc3n1)C2 [Example 27, N-Hydroxy-2-(quinolin-2-ylcarbonyl)isoindoline-5-carboxamide]

melting point: 177 to 181 °C
Compound: CC(=O)N1CCc2ccc(C(=O)NO)cc2C1 [Example 25, 2-Acetyl-N-hydroxy-1,2,3,4-tetrahydroisoquinoline-7-carboxamide]

melting point: 208 to 210 °C
Compound: O=C(NO)c1ccc2c(c1)CN(C(=O)c1cc3ccccc3cn1)C2 [Example 29, N-Hydroxy-2-(isoquinolin-3-ylcarbonyl)isoindoline-5-carboxamide]

melting point: 208 to 210 °C
Compound: O=C(NO)c1ccc2c(c1)CN(C(=O)c1ccc3ncccc3c1)C2 [Example 28, N-Hydroxy-2-(quinolin-6-ylcarbonyl)isoindoline-5-carboxamide]

IC50 (rHDAC6): 0.001 to 0.1 µM
IC50 (rHDAC1): 10 to 100 µM
Compound: O=C(NO)c1ccc2c(c1)CCN(C(=O)Cc1ccccn1)C2 [Example 2, N-Hydroxy-2-(pyridin-2-ylacetyl)-1,2,3,4-tetrahydroisoquinoline-6-carboxamide hydrochloride]
IC50 at 72 h [2]: > 100 µM
